The target of experiment [1] is T1, Alpha-2C adrenergic receptor (Rattus norvegicus, UniProt P22086).
T1 sequence (P22086 whole entry): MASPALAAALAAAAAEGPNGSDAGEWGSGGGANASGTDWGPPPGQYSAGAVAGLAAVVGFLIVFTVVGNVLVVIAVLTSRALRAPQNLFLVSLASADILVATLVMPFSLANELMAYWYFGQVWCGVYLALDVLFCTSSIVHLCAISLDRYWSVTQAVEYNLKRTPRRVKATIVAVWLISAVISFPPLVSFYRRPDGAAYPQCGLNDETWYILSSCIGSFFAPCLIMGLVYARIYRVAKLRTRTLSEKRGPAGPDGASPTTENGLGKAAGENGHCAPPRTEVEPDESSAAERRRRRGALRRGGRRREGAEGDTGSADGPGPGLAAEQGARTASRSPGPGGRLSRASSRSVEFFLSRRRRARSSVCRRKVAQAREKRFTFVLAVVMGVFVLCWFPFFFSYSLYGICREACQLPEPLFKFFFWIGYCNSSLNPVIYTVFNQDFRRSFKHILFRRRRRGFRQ

For experiment [2], the target named is Metabotropic glutamate receptor 1 (Rattus norvegicus, UniProt P23385).
Experiment [3] deals with Metabotropic glutamate receptor 2 (Homo sapiens, UniProt Q14416).
Experiment [4] addresses T2, Retinoic acid receptor RXR-alpha (Rattus norvegicus, UniProt Q05343).
T2 sequence (Q05343 whole entry): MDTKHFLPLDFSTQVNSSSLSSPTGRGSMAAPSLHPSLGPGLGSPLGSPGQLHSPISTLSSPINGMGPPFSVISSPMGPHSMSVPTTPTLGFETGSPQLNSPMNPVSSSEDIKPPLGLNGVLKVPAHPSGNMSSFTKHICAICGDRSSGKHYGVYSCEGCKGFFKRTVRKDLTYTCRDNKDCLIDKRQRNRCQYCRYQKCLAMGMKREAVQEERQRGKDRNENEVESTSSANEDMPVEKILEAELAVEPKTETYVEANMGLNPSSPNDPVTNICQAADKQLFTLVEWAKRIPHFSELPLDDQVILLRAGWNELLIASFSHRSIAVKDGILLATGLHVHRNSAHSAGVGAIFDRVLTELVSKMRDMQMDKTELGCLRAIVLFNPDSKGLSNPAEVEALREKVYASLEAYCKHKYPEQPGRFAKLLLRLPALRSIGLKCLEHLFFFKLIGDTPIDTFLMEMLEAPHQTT

This is an account of results in BindingDB's records for doi:10.1016/s0024-3205(03)00272-8 (Merck Research Laboratories, 2003).

Sequence of Metabotropic glutamate receptor 1 (P23385 whole entry): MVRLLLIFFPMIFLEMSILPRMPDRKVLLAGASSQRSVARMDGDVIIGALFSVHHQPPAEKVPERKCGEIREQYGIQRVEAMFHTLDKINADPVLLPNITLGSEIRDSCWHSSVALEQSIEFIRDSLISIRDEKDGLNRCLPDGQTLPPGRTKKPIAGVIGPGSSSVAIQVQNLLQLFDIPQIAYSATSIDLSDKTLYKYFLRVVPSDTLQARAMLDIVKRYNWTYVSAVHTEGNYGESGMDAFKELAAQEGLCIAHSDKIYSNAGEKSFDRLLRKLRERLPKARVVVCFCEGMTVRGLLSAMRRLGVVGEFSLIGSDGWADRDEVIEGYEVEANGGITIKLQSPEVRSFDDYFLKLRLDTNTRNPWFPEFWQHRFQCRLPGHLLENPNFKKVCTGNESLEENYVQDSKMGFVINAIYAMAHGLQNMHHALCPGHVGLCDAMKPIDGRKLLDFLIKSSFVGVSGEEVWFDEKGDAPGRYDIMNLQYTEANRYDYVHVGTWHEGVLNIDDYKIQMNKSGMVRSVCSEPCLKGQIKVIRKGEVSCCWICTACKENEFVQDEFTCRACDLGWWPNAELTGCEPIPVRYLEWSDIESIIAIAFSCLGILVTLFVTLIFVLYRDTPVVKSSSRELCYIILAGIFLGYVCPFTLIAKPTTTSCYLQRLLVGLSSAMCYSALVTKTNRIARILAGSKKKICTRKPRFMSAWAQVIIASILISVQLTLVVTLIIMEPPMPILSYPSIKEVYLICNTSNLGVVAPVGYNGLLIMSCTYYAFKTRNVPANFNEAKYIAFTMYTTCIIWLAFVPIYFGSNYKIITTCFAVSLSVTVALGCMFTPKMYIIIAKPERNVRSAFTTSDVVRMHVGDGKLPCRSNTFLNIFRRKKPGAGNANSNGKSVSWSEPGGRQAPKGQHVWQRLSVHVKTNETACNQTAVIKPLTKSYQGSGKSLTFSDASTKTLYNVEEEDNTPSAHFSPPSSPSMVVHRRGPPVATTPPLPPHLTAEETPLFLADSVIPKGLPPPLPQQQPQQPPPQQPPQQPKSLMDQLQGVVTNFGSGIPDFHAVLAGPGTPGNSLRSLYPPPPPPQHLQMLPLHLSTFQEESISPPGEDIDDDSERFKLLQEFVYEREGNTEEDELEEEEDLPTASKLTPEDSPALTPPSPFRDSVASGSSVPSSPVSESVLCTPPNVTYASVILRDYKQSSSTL
Sequence of Metabotropic glutamate receptor 2 (Q14416 whole entry): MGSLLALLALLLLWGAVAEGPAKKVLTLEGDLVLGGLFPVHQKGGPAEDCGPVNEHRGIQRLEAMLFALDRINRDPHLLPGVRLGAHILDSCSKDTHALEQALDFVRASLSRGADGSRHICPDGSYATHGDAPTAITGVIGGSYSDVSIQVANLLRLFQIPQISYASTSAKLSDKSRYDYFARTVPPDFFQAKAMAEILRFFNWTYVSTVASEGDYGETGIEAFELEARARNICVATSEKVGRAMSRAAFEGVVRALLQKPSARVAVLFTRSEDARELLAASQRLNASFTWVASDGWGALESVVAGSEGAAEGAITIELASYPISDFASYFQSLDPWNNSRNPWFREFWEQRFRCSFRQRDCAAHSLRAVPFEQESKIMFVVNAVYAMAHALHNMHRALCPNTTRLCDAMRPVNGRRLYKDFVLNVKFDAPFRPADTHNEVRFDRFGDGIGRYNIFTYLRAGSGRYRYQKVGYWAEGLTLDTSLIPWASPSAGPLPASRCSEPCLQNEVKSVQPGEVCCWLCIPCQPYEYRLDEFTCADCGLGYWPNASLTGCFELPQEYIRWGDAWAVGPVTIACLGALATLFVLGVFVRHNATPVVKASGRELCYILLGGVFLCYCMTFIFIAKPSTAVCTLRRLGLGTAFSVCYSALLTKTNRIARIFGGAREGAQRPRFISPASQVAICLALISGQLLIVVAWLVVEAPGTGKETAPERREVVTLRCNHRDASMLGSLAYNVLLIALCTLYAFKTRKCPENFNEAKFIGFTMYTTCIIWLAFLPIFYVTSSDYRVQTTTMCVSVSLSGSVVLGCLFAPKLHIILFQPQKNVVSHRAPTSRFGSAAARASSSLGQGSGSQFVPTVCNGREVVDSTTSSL

What is called Ki is a measure of affinity in units of concentration, obtained from inhibition or displacement. Low values mean tighter binding, high ones weaker binding. With `COc1cccc(OC)c1OCCNCC1CSc2ccccc2O1` (centres undefined) [NSC_2325], the affinity in experiment [1], expressed as Ki, was 7.6 µM.

As for `NC(C(=O)O)c1ccc(C(=O)O)cc1` (centres undefined) [4-(Amino-carboxy-methyl)-benzoic acid], affinity in experiment [2] was put at a Ki of 1.1 µM. In other words, the single-digit micromolar range.

Take `NC1(C(=O)O)CCc2cc(C(=O)O)ccc21` (racemic) [AIDA]: the inhibition constant (Ki) in experiment [3] is 1.1 µM. This lies in the single-digit micromolar range.

In experiment [4], `CC12NC(Cc3ccccc31)c1ccccc12` (centres undefined) [CAS_180081] yielded an inhibition constant (Ki) of 7.6 µM.
